Reference: US20040230257A1, “Enhanced bioavailability of nutrients, pharmaceutical agents, and other bioactive substances through laser resonant homogenization or modification of molecular shape or crystalline form” (priority 2003, published 2004)
Structures can show the parent of a compound that is named as a salt.

Tests used:
[1] = X-ray crystallography of control vs laser treated L-arginine hydrochloride; type: physicochemical; settings: crystallized from deionized water by slow evaporation at room temperature
Procedure: Each sample was dissolved in 0.50 grams of deionized water. The control sample was crystallized by slow evaporation at room temperature over 24 hours. The average room temperature was approximately 26 degrees Centigrade. The average ambient humidity was approximately 33%.
The treated sample was crystallized under the same conditions with the addition of pulsed modulated energy at 532 nm as described for Arg #1 in Example 2 above. The beam was passed through the center of the meniscus of solution in the container.
Crystals from the control and treated samples were selected for further study. Selected crystals all had dimensions of approximately 0.5 mm on a side or less as per the latest standards in the art. The crystal structures were solved using a SMART X-ray diffraction analytical device.

[2] = Case report: lupus patient on the laser treated methylation formula; type: in vivo, human; settings: before entry, only treatment
Description: The exemplary patient had suffered with relapsing lupus for several years. At the time of entry into the methylation formula studies of EXAMPLE 6, they had experienced a relapse of severe disease for several months.
Their disease was characterized by exquisitely tender blistering and ulcerating lesions on their hands and feet that made it difficult to walk or open a cabinet door without severe pain. Their skin was pallid, they were extremely fatigued with a chronic low energy state, and had suffered extensive hair loss. Their sedimentation rate, a marker for systemic inflammation, was highly elevated at 99, whereas a normal level would be 0-30. […] They declined the use of corticosteroids due to severe treatment side effects during a prior relapse.
The subject was randomized to the placebo control group and for 3 months had no improvement in condition. In the second phase of the study, they were placed on a high dose of the methylation formula of 6 grams of laser treated betaine plus cofactors daily. […]
The subject continued on a lower dose of the laser treated methylation formula for 5 more months, reduced to 1-2 grams of the laser treated betaine plus cofactors. […] At the end of fifth month of lower dose treatment, their sedimentation rate had dropped to the very low normal value of 1, the lowest level ever recorded for them.

murine macrophages = assay: Nitrite (nitric oxide) production by LPS-stimulated murine macrophages given arginine samples; type: cell-based; settings: arginine 120 mcg/ml, LPS 1 ng/ml, 24 hours; for Mean O.D. ± S.D. (optical density at 540 nm, a measure of nitrite concentration): 12 wells
Procedure: Paracelsian in Ithaca, N.Y., an outside independent lab, performed the following bioassays. Each arginine sample was added to 12 wells of murine macrophages to achieve a concentration of 120 mcg/ml. This is the estimated serum concentration for a 70 Kg person after ingesting a 6-gram serving of arginine, a level observed in numerous clinical studies to be associated with a wide range of physiologic benefits. LPS at 1 ng/ml was added to each well and the cells were incubated for 24 hours. The nitrite concentration in each well's supernatant was determined 24 hours after initiation of treatment as a relative measure of nitric oxide production.
The results are listed in order of relative nitrite production, from greatest to least. The first column is the Arg #, the second the mean plus or minus the standard deviation of the optical density measurement at 540 nm, a measure of nitrite concentration, and the third column the relative production of nitrites expressed in micrograms per ml as determined from optical density.

[3] = X-ray crystallography of control vs laser treated betaine hydrochloride; type: physicochemical; settings: crystals from deionized water
Procedure: The control and treated betaine hydrochloride samples shown in FIGS. 5A, 5B, 5C, 5D, and 5E were prepared by dissolving 0.6 grams of betaine hydrochloride in 3.0 grams of deionized water and placing the solutions thus prepared in 10×35 mm Petri dishes. Crystallization was done in open containers by slow evaporation at room temperature, a procedure often used in the art of crystallography. Ambient humidity was maintained at or below 30 percent with laboratory dehumidifiers. The treated betaine hydrochloride was irradiated with a 670 nm continuous wave diode laser modulated at 10 MHz with a primary beam power of 2.7 milliwatts that was phase conjugated to 1.35 milliwatts. The 5 mm diameter beam was passed through the middle of fluid meniscus of the treated solution during the entire crystallization process. The control untreated betaine hydrochloride was prepared under the same conditions, except that it was not irradiated with the sparse constructive node generating laser system.
X-ray crystallography was performed using a SMART device made by Siemens. FIGS. 5C and 5D show the intermolecular hydrogen bonding of control versus laser treated betaine hydrochloride, respectively. […]

[4] = animal studies; cited from earlier work
[5] = betaine 9 grams daily plus vitamin B12, a liver extract and a creatine precursor; placebo 25%; cited from earlier work
[6] = cited from earlier work
[7] = Pilot test: blood SAMe level and knee pain in a subject with osteoarthritis; type: in vivo, human
Description: As a pilot test, a subject with osteoarthritis had blood SAMe levels measured while taking SAMe and then while taking a betaine formulation. […] On this level of SAMe ingestion for three months, their blood SAMe level was 4.9 (the normal range for this lab is 4.2-8.2). At this time, SAMe was discontinued and they started a methylation formula with one gram of laser treated betaine plus laser treated metabolic cofactors. The betaine and metabolic co-factors were in the same ratios as in the double blind clinical study formula to be described below.
In particular, the dual effect of raising SAMe while reducing homocysteine would be expected to preserve and improve the condition of DNA methylation, as SAMe is the exclusive methyl group donor for DNA methylation.

With `Cl.N=C(N)NCCC[C@H](N)C(=O)O` [laser treated L-arginine hydrochloride, L-arginine hydrochloride] the “crystal form / water in the crystal lattice” value [1] was “free of water in the crystal lattice”.

For `CCN(CCO)CCCC(C)Nc1ccnc2cc(Cl)ccc12` (stereo not drawn) [Plaquenil], the “relief of lupus symptoms” value [2] was “did little to relieve their symptoms”.

For `N=C(N)NCCC[C@H](N)C(=O)O` [Arg #1, L-arginine], the “nitric oxide byproducts produced compared with control untreated Arg #4” value (murine macrophages) was “statistically significantly less” and the “Mean O.D. ± S.D. (optical density at 540 nm, a measure of nitrite concentration)” value (murine macrophages) was “.215 ± .007”.

For `Cl.N=C(N)NCCC[C@H](N)C(=O)O` [control L-arginine hydrochloride, L-arginine hydrochloride], the “crystal form / water in the crystal lattice” value [1] was “monohydrated crystal”.

For `C[N+](C)(C)CC(=O)O` [treated betaine hydrochloride, betaine hydrochloride], the “intermolecular hydrogen bonds per molecule” value [3] was 3.

With `N=C(N)NCCC[C@H](N)C(=O)O` [Arg #2, L-arginine] the “nitric oxide byproducts produced compared with control untreated Arg #4” value (murine macrophages) was “statistically significantly less” and the “Mean O.D. ± S.D. (optical density at 540 nm, a measure of nitrite concentration)” value (murine macrophages) was “.219 ± .008”.

In the case of `C[N+](C)(C)CC(=O)O` [betaine, N,N,N-trimethylglycine], the “liver SAMe levels” value [4] is given as “up to fourfold” and the “mortality after one year” value [5] is given as “no mortality”.

In the case of `C[N+](C)(C)CC(=O)O` [untreated betaine hydrochloride, betaine hydrochloride], the “intermolecular hydrogen bonds per molecule” value [3] is reported as 4.

For `N=C(N)NCCC[C@H](N)C(=O)O` [Arg #4, L-arginine], the “Mean O.D. ± S.D. (optical density at 540 nm, a measure of nitrite concentration)” value (murine macrophages) was “.224 ± .006”.

For `C[S+](CC[C@H](N)C(=O)[O-])C[C@H]1O[C@@H](n2cnc3c(N)ncnc32)[C@H](O)[C@@H]1O` (stereo partly drawn) [SAMe, S-adenosyl-methionine], the anti-depressant effects ([6]; 1600 mg per day) is listed as “comparable to tricyclic anti-depressant drugs”, the “time to anti-depressant effects” value ([6]; tricyclic medications 4-6 weeks) is listed as “within one week” and the “blood SAMe level” value ([7]; 800 mg of SAMe daily for three months, normal range 4.2-8.2) is listed as 4.9. For the same molecule, the knee pain ([7]; SAMe 800 mg daily, formula with one gram laser treated betaine for one month) was “moderate degree of relief”.

In the case of `N=C(N)NCCC[C@H](N)C(=O)O` [Arg #3, L-arginine], the “nitric oxide byproducts produced compared with control untreated Arg #4” value (murine macrophages) is reported as “statistically significantly more” and the “Mean O.D. ± S.D. (optical density at 540 nm, a measure of nitrite concentration)” value (murine macrophages) is reported as “.232 ± .010”.
